From the supplement of paper PMC10307832

How the values were obtained:
Experiment in all cases: relative viability (nuclei count vs DMSO), 5 days (fraction); higher = more cells survive
[1] = compound: CC1=C(C=CC(=C1)[N+](=O)[O-])NS(=O)(=O)C2=C(C=CC(=C2)Cl)Cl [FH535] + Cc1nc(Nc2ncc(C(=O)Nc3c(C)cccc3Cl)s2)cc(N2CCN(CCO)CC2)n1 [Dasatinib] (partner 0.075 µM)
How it was run: (§1)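 After 5 days of treatment, lung cancer cells in 1536-well plates were fixed and stained in a single step (final 0.05% Triton X-100, 1% formaldehyde, 1 ug/ml Hoechst) and their nuclei counted on 4× images. Treatment had been applied by pin tool the day after seeding as one drug alone or as a fixed anchor-drug dose with five library-drug doses (not always all listed) in √10 steps. Relative viability is the nuclei count of treated wells divided by that of vehicle wells, and values are medians of duplicate plates.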

[2] = compound: CC1=C(C=CC(=C1)[N+](=O)[O-])NS(=O)(=O)C2=C(C=CC(=C2)Cl)Cl [FH535] + Nc1ncn([C@H]2C[C@H](O)[C@@H](CO)O2)c(=O)n1 [Decitabine] (partner 2 µM)
How it was run: as §1

[3] = compound: CC1=C(C=CC(=C1)[N+](=O)[O-])NS(=O)(=O)C2=C(C=CC(=C2)Cl)Cl [FH535] + Cc1cc(Nc2cc(N3CCN(C)CC3)nc(Sc3ccc(NC(=O)C4CC4)cc3)n2)n[nH]1 [Tozasertib] (partner 0.1 µM)
How it was run: as §1

[4] = compound: CC1=C(C=CC(=C1)[N+](=O)[O-])NS(=O)(=O)C2=C(C=CC(=C2)Cl)Cl [FH535] + CC1(C)CCC(c2ccc(Cl)cc2)=C(CN2CCN(c3ccc(C(=O)NS(=O)(=O)c4ccc(N[C@H](CCN5CCOCC5)CSc5ccccc5)c(S(=O)(=O)C(F)(F)F)c4)cc3)CC2)C1 [Navitoclax] (partner 0.5 µM)
How it was run: as §1

[5] = compound: CC1=C(C=CC(=C1)[N+](=O)[O-])NS(=O)(=O)C2=C(C=CC(=C2)Cl)Cl [FH535] + COc1cc2c(Oc3ccc(NC(=O)C4(C(=O)Nc5ccc(F)cc5)CC4)cc3F)ccnc2cc1OCCCN1CCOCC1 [Foretinib] (partner 0.25 µM)
How it was run: as §1

Cell Line	relative viability ([1]; first compound 0.04 µM)	relative viability ([1]; first compound 0.1265 µM)	relative viability ([1]; first compound 0.4 µM)	relative viability ([1]; first compound 1.265 µM)	relative viability ([2]; first compound 0.04 µM)	relative viability ([2]; first compound 0.1265 µM)	relative viability ([2]; first compound 0.4 µM)	relative viability ([2]; first compound 1.265 µM)	relative viability ([3]; first compound 0.04 µM)	relative viability ([3]; first compound 0.1265 µM)	relative viability ([3]; first compound 0.4 µM)	relative viability ([3]; first compound 1.265 µM)	relative viability ([4]; first compound 0.04 µM)	relative viability ([4]; first compound 0.1265 µM)	relative viability ([4]; first compound 0.4 µM)	relative viability ([4]; first compound 1.265 µM)	relative viability ([5]; first compound 0.04 µM)	relative viability ([5]; first compound 0.1265 µM)	relative viability ([5]; first compound 0.4 µM)	relative viability ([5]; first compound 1.265 µM)
NCI-H2405	0.202	0.243	0.232	0.221	0.688	0.75	0.689	0.571	0.746	0.755	0.782	0.579	0.762	0.976	0.868	0.448	1.01	1.07	0.967	0.761
NCI-H3122	0.703	0.782	0.713	0.719	0.338	0.393	0.46	0.413	0.329	0.367	0.475	0.369	1.02	1.05	1.01	0.947	0.888	0.901	0.924	0.931
PC-3 [JPC-3]	1.05	0.812	0.837	0.749	0.865	0.805	0.756	0.74	0.846	0.901	0.795	0.513	0.778	0.753	0.762	0.57	1	1	0.879	0.582
PC-14	0.282	0.287	0.251	0.245	0.218	0.231	0.242	0.223	0.507	0.693	0.615	0.617	0.972	1.1	1.01	0.941	1.03	1.06	0.982	1.02
RERF-LC-KJ	0.845	0.805	0.747	0.502	0.645	0.707	0.55	0.467	0.515	0.52	0.473	0.386	1.15	0.784	1.11	0.719	0.927	0.895	0.869	0.787
SK-LU-1	0.191	0.192	0.182	0.194	0.63	0.517	0.626	0.44	0.319	0.38	0.316	0.32	0.89	1.01	0.688	0.622	0.834	0.805	0.822	0.662
SK-MES-1	0.407	0.47	0.343	0.292	0.356	0.347	0.429	0.386	0.952	0.954	0.751	0.658	1.16	1.22	1.12	0.929	0.918	1.05	0.963	0.814
SW 1573	0.42	0.414	0.344	0.454	0.464	0.515	0.52	0.411	0.171	0.164	0.215	0.161	0.938	1.01	0.837	0.768	0.784	0.944	1.01	0.89
UMC-11	0.446	0.454	0.416	0.422	0.609	0.529	0.594	0.576	0.189	0.213	0.196	0.202	0.312	0.315	0.298	0.262	0.967	1.13	1.03	0.88
